Laboratory results taken from patent US6242173A, “Immunoassays for catalytically-active, serine proteases” (University of Vermont and State Agriculatural College, priority 1992, dated 2001).
Entries after “also recorded” stand apart in the source; their conditions may differ.

Experiments:
Human Xa [1] = target: T1, Human Xa (Homo sapiens, UniProt P00742); experiment: Fluorophore-protein ratios by absorbance; assay type: binding; details: isolated labeled protein
T1 construct: from tissue; host or cells: fresh frozen human plasma

bovine Xa = bovine Xa (Bos taurus, UniProt P00743); experiment: Fluorophore-protein ratios by absorbance; assay type: binding; details: isolated labeled protein
thrombin = target: T2, thrombin (Homo sapiens, UniProt P00734); experiment: Blocking of the reaction of thrombin with synthetic substrate S2238; assay type: biochemical; details: solution in 1.0 mM HCl
T2 construct: from tissue; host or cells: fresh frozen human plasma
Description: FPRck.2HCl (Calbiochem) (5.0 mg, […]) was dissolved in methanol (1.0 mL) and treated with 2,6-dansyl chloride (Molecular Probes) (2.6 mg, 9.5 μmoles) in DMF (1.0 mL). The solution was mixed and treated with 4-methylmorpholine (20 μL, 16 μmoles). After 20 minutes at 25° C., the reaction was stopped by addition of 1.0 M HCl (100 μL) and the mixture was applied directly to a SEPHADEX LH-20 column (1×30 cm, in methanol). The elution was followed by fluorescence, A280, Sakaguchi stain and thin layer chromatography. The product appeared as a single fluorescent, Sakaguchi positive spot Rf =0.14 (2:1 chloroform:methanol on Bakerflex silica gel). The pooled sample was evaporated to an oil and taken up in 1.0 mM HCl. […] The solution was lyophilized to an oil which was taken up in 10.0 mM HCl (3.8 mL) and frozen. Final concentration (determined by A360) was 1.0 mM. Yield was 3.8 μmoles or 40%.
Factor Xa: In a one mL cuvette, 22.5 μM S2222 in Hepes/saline pH=7.4 was treated with 1-10 μL of the factor Xa preparation. The mixture was stirred briefly and the absorbance at 405 nm followed in a Cary 219 UV/visible spectrophotometer. The rate was taken for the initial linear phase. Similar methods were used for thrombin (S2238), plasmin (S2251) and tPA (S2238). Hemker, H. C. (1983) in Handbook of Synthetic Substrates: For the Coagulation and Fibrinolytic Systems. Martinus Nijhogg Publishers, Boston.

tissue factor = tissue factor (Homo sapiens, UniProt P13726); experiment: Blocking of tissue factor, tissue factor specific activity; assay type: biochemical
[2] = test system: tissue plasminogen activator (tTPA) (1 and 2 chain); experiment: Screening of protein/BC-PPACK reactions, avidin-biotin-peroxidase blot; assay type: binding, human; details: 10 fold molar excess twice, overnight
Description: (§1) Samples of purified enzymes, zymogens, or enzyme-zymogen mixtures were treated with BC-PPACK as follows: 10-30 μg samples of protein at 0.5 mg/mL in Hepes (20 mM)/NaCl (150 mM) pH=7.4 was reacted with 10 fold molar excess of BC-PPACK for 30 minutes, followed by a second 10 fold aliquot and overnight incubation at room temperature. Samples were then reduced with 2-mercapto-ethanol and prepared for PAGE gel electrophoresis either on 12×12 cm or PhastGel systems. After electrophoresis, the gels were blotted to nitrocellulose using tris/glycine methanol transfer buffer. The nitrocellulose was then blocked with TWEEN reagent, washed with tris/glycine and reacted with avidin-biotin-peroxidase. Development with 4-chloronapthtalene visualized the biotinylated proteins.
Plasminogen was isolated by passing thawed, aprotinin treated plasma over lysine-Sepharose and eluting the bound plasminogen with ε-aminocaproic acid (ECAC) (Castellino, F. J. and Powell, J. R. (1980) Methods Enzymol. 80:365-378). A second pass over the lysine SEPHAROSE gel, followed by separation from aprotinin on SEPHAROSE gel G-100 gave plasminogen which was homogeneous when evaluated by gel electrophoresis. Plasmin was prepared from plasminogen by treatment with 1:200 (weight:weight) of urokinase in Hepes/saline. Tissue plasminogen activator (tPA) was recombinant human tPA (Genentech) and contained both single chain and two chain forms. Urokinase was a generous gift from Dr. David Stump and was two chain.

hII = target: T3, hII (Homo sapiens, UniProt P00734); experiment: as above; assay type: binding; details: zymogen; 10 fold molar excess twice, overnight
T3 construct: Except as noted, all proteins were isolated from fresh frozen human plasma; from tissue; host or cells: fresh frozen human plasma
Description: as §1

hVII = target: T4, hVII (Homo sapiens, UniProt P08709); experiment: as above; assay type: binding; details: zymogen; 10 fold molar excess twice, overnight
T4 construct: Except as noted, all proteins were isolated from fresh frozen human plasma; from tissue; host or cells: fresh frozen human plasma
T4 sequence (P08709 61-466): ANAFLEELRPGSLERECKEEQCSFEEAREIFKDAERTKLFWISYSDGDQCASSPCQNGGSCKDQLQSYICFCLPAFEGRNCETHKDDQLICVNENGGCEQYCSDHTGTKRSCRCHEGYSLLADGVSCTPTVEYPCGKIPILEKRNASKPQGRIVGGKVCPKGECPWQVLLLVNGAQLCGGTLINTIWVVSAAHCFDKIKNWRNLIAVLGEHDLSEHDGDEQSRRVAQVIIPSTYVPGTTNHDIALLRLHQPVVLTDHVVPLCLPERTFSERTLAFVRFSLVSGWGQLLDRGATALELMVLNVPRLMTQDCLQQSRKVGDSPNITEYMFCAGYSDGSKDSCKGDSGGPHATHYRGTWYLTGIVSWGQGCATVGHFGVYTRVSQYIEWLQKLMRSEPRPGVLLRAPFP
Description: as §1

hX = target: T5, hX (Homo sapiens, UniProt P00742); experiment: as above; assay type: binding; details: zymogen; 10 fold molar excess twice, overnight
T5 construct: Except as noted, all proteins were isolated from fresh frozen human plasma; from tissue; host or cells: fresh frozen human plasma
Description: as §1

factor VIIa (hVIIa) = target: T6, factor VIIa (hVIIa) (Homo sapiens, UniProt P08709); experiment: as above; assay type: binding; details: 10 fold molar excess twice, overnight
T6 construct: Human factor VII was converted to VIIa by incubation for 1 hour with a 0.2% (w/w) aliquot of human Xa; from tissue; host or cells: fresh frozen human plasma; VII converted to VIIa with human Xa, or VIIa already present in the isolate
T6 sequence (P08709 213-466 limits assumed): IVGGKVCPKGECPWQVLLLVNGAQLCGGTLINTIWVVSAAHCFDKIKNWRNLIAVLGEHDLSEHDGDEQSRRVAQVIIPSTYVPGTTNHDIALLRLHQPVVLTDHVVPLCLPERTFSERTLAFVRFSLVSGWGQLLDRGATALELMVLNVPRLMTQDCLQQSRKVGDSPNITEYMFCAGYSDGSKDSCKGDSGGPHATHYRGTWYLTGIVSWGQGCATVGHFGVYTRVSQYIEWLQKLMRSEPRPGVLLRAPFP
T6 sequence (P08709 61-212 partner limits assumed): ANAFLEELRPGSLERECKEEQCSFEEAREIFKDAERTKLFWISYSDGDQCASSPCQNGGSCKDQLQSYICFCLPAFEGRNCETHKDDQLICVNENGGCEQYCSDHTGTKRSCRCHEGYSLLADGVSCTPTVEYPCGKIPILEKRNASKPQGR
Description: as §1

factor Xa (hXa) = target: T7, factor Xa (hXa) (Homo sapiens, UniProt P00742); experiment: as above; assay type: binding; details: 10 fold molar excess twice, overnight
T7 construct: from tissue; host or cells: fresh frozen human plasma
Description: as §1

thrombin (hIIa) = target: T8, thrombin (hIIa) (Homo sapiens, UniProt P00734); experiment: as above; assay type: binding; details: 10 fold molar excess twice, overnight
T8 construct: from tissue; host or cells: fresh frozen human plasma
Description: as §1

hPg = target: T9, hPg (Homo sapiens, UniProt P00747); experiment: as above; assay type: binding; details: zymogen; 10 fold molar excess twice, overnight
T9 construct: Plasminogen was isolated by passing thawed, aprotinin treated plasma over lysine-Sepharose; from tissue; host or cells: human plasma (lysine-Sepharose)
Description: as §1

plasmin (hPm) = target: T10, plasmin (hPm) (Homo sapiens, UniProt P00747); experiment: as above; assay type: binding; details: 10 fold molar excess twice, overnight
T10 construct: Plasmin was prepared from plasminogen by treatment with 1:200 (weight:weight) of urokinase; from tissue; host or cells: human plasma (lysine-Sepharose)
Description: as §1

avidin = avidin (Gallus gallus, UniProt P02701); experiment: Avidin-biotin interaction (fluorescein-avidin, avidin-acrylic, avidin-peroxidase blotting); details: free compound, column fractions in 1.0 mM HCl
activated human plasma = experiment: Reaction of activated human plasma with BC-YGR-CK, blot; details: thromboplastin and Ca+2 (4 mM) activated plasma, timed aliquots, final CK concentration 1.2 μM
Description: Normal human plasma (200 μL) at 37° C. was activated with thromboplastin (10 μL) and Ca^+2 (4 mM). At timed intervals, 20 uL aliquots were removed and added to 2 μL aliquots of […] BC-YGR-CK (final CK concentration was 1.2 μM). A clot was observed after 122 seconds. The samples were then run on PhastGel electrophoresis and blotted to nitrocellulose.

factor VIIa = target: T11, factor VIIa (Homo sapiens, UniProt P08709); experiment: Removal of active enzyme from zymogen with biotinylated chloromethyl ketone and avidin matrix; details: human factor VII containing factor VIIa; listed as BioCap-YGRck
T11 construct: Human factor VII was converted to VIIa by incubation for 1 hour with a 0.2% (w/w) aliquot of human Xa; from tissue; host or cells: fresh frozen human plasma; VII converted to VIIa with human Xa, or VIIa already present in the isolate
T11 sequence (P08709 213-466 limits assumed): T6 sequence (P08709 213-466 limits assumed)
T11 sequence (P08709 61-212 partner limits assumed): T6 sequence (P08709 61-212 partner limits assumed)

Human Xa [3] = target: T1, Human Xa; experiment: Reaction of Human Xa with BC-PPACK, residual activity vs. S2222; assay type: biochemical

T7 sequence (P00742 235-488 limits assumed): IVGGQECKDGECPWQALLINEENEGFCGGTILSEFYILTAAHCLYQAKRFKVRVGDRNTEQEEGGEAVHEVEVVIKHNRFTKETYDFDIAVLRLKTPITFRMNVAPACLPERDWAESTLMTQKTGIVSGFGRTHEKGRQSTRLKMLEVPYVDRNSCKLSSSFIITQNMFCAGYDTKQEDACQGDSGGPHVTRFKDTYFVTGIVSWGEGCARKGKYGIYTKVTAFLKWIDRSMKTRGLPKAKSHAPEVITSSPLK
T7 sequence (P00742 41-179 partner limits assumed): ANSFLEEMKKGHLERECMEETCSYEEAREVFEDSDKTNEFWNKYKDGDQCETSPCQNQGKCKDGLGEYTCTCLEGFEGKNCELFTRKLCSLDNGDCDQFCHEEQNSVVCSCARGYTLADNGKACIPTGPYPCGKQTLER
T1 sequence (P00742 235-488 limits assumed): as the sequence (P00742 235-488 limits assumed) above
T1 sequence (P00742 41-179 partner limits assumed): as the sequence (P00742 41-179 partner limits assumed) above
Chain of tissue plasminogen activator (tTPA) (1 and 2 chain) (P00750 311-562 limits assumed): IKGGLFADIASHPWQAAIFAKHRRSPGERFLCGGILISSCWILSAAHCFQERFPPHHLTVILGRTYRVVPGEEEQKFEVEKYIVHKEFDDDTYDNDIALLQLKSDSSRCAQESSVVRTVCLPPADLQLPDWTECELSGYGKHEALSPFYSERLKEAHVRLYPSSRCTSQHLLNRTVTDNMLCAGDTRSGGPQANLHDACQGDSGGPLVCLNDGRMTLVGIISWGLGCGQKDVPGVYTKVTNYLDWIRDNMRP
T5 sequence (P00742 183-488 limits assumed): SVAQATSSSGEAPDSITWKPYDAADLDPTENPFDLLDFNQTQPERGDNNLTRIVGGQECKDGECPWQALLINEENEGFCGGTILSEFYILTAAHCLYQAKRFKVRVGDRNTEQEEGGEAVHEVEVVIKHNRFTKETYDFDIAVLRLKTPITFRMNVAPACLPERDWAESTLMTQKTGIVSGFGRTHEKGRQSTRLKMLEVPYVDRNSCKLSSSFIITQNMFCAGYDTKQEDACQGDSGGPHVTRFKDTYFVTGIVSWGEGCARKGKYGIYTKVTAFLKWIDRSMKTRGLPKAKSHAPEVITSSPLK
T5 sequence (P00742 41-179 partner limits assumed): as the sequence (P00742 41-179 partner limits assumed) above
T9 sequence (P00747 20-810 limits assumed): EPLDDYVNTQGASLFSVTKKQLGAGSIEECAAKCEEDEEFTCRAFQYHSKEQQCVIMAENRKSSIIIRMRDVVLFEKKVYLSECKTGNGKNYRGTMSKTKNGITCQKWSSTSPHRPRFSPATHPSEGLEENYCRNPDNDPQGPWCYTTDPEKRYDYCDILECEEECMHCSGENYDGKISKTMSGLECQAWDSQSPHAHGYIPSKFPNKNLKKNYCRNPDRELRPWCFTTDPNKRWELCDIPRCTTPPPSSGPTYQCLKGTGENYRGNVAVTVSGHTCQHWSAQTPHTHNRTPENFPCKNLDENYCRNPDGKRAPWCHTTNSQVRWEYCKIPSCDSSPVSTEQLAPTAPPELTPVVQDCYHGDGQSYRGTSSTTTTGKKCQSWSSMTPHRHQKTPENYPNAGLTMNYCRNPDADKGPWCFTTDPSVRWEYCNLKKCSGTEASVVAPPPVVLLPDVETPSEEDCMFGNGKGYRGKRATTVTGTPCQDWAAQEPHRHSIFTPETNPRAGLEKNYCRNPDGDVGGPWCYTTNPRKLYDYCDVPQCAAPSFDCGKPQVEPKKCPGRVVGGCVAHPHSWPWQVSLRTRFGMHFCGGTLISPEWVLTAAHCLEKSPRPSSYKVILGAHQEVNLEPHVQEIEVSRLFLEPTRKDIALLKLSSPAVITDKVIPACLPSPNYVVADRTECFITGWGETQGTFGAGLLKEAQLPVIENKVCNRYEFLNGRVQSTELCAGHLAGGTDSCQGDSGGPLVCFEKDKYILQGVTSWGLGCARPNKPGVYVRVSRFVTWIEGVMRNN
Chain of tissue factor (P13726 33-295): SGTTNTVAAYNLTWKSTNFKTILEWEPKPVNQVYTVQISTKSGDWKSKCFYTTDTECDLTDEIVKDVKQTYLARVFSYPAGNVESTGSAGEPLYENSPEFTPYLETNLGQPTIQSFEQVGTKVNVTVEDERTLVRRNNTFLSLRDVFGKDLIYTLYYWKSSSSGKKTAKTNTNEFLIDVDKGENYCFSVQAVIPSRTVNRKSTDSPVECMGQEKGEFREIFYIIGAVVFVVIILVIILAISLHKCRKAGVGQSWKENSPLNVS
T10 sequence (P00747 581-810 limits assumed): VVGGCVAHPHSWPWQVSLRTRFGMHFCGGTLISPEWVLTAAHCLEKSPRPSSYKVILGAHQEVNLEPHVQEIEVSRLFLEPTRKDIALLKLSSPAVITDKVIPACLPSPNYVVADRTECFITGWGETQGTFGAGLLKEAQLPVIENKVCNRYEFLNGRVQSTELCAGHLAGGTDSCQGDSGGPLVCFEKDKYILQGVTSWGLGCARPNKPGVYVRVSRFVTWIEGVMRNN
T10 sequence (P00747 97-580 partner limits assumed): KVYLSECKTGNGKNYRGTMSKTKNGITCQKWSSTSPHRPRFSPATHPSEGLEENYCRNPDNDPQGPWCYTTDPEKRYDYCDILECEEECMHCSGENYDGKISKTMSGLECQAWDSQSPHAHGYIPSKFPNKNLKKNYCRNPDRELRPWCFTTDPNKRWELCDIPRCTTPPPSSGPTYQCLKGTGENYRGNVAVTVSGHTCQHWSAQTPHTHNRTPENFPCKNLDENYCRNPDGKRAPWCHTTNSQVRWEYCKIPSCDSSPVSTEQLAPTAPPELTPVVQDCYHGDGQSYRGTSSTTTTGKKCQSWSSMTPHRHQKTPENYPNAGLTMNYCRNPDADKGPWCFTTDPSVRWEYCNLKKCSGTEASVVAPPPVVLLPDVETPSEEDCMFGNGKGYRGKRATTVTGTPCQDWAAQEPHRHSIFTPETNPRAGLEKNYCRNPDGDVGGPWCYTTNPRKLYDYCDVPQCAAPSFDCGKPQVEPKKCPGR
Chain of bovine Xa (P00743 234-492 limits assumed): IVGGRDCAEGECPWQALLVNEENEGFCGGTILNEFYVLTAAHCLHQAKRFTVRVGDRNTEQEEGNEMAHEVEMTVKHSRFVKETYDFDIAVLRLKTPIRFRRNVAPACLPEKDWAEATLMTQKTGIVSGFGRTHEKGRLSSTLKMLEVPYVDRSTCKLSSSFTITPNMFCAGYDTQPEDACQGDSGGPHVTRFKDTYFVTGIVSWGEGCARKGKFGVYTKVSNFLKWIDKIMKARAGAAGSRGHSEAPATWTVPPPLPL
Chain of bovine Xa (P00743 41-180 partner limits assumed): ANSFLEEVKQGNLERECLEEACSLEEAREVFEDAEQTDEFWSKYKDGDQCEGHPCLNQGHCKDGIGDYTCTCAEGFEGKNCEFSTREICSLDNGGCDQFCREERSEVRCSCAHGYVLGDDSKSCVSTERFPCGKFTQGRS
Chain of avidin (P02701 25-152): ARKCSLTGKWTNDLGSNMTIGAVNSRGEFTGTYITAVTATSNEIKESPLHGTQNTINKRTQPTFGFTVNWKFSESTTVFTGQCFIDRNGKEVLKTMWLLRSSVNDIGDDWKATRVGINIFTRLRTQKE

Row | Compound | biotinylated protein on blot [2] | biotinylated protein on blot (hII) | biotinylated protein on blot (hVII) | biotinylated protein on blot (hX) | biotinylated protein on blot (factor VIIa (hVIIa)) | biotinylated protein on blot (factor Xa (hXa)) | biotinylated protein on blot (thrombin (hIIa)) | also measured
1 | 5 (and 6) Carboxylfluoresceinyl-L-glutamylglycyl-L-arginine chloromethyl ketone hydrochloride [Fluoresceinyl-EGRCk] |  |  |  |  |  |  |  | Fluorophore/Protein (Human Xa [1]): 1.06 mole/mole; Fluorophore/Protein (bovine Xa): 1.02 mole/mole
2 | CN(C)c1ccc2cc(S(=O)(=O)N[C@H](Cc3ccccc3)C(=O)N3CCC[C@H]3C(=O)N[C@@H](CCCNC(=N)N)C(=O)CCl)ccc2c1.Cl [2,6-dansyl-FPRck.HCl, 6-Dimethylaminonapthalene-2-sulfonyl-D-phenylalanyl-L-prolyl-L-arginine chloromethyl ketone hydrochloride] |  |  |  |  |  |  |  | blocking of reaction of thrombin with S2238 (thrombin): rapidly blocked
3 | NC(N)=NCCC[C@H](NC(=O)[C@@H]1CCCN1C(=O)[C@H](N)Cc1ccccc1)C(=O)CCl [FPRck] |  |  |  |  |  |  |  | decrease of specific activity of tissue factor (tissue factor; 1.0 mM, 24 hours): 10-20%
4 | O=C(O)c1cc[c]([Hg][Cl])cc1 [p-chloromercuribenzoate] |  |  |  |  |  |  |  | decrease of specific activity of tissue factor (tissue factor; 100 µM, 2 hours): 10-20%
5 | Biotinyl-D-phenylalanyl-L-prolyl-L-arginine Chloromethyl Ketone [Biotinyl-PPACK] | none of the proteins showed a positive blot | none of the proteins showed a positive blot | none of the proteins showed a positive blot | none of the proteins showed a positive blot | none of the proteins showed a positive blot | none of the proteins showed a positive blot | none of the proteins showed a positive blot | biotinylated protein on blot (hPg): none of the proteins showed a positive blot; biotinylated protein on blot (plasmin (hPm)): none of the proteins showed a positive blot; enhancement of the fluorescence of fluorescein-avidin (avidin): positive
6 | Biotinyl-ε-aminocaproyl-L-tyrosylglycyl-L-arginine chloromethyl ketone [BC-YGR-CK] | Identical results | Identical results | Identical results | Identical results | Identical results | Identical results | Identical results | biotinylated proteins on blot of activated plasma (activated human plasma): several biotinylated proteins; factor VIIa remaining after treatment and avidin matrix, gel analysis (factor VIIa): no factor VIIa remained; also recorded: no contamination with factor VIIa
7 | biotinyl-ε-aminocaproyl-D-phenylalanyl-L-prolyl-L-arginine chloromethyl ketone [BC-PPACK] | positive | No reaction | No reaction | No reaction | positive | positive | positive | relative activity (vs. S2222) (Human Xa [3]; 0.46 equivalents added): 0.62; relative activity (vs. S2222) (Human Xa [3]; 0.92 equivalents added): 0.13; relative activity (vs. S2222) (Human Xa [3]; 1.38 equivalents added): 0.01; relative activity (vs. S2222) (Human Xa [3]; 1.84 equivalents added): 0.00; relative activity (vs. S2222) (Human Xa [3]; 2.76 equivalents added): 0.00; biotinylated protein on blot (hPg): No reaction; biotinylated protein on blot (plasmin (hPm)): positive
